≈ marks a conversion by molar mass, not a printed value. *1 amine or outer side, *2 acyl side, *3 side chain or, on linkers, in order; H or OH if unused. Where a SMILES comes first, the peptide text is derived from it. [ ]: non-standard residue; d: D form. The star is where a group is joined. ξ: configuration not given here. Sta = CC(C)C[C@H](N)[C@@H](O)CC(=O)O; X1 = CC(C)CC(N[*:1])C(O)CC(=O)[*:2]; ξPhg = NC(C(=O)O)c1ccccc1; Boc = CC(C)(C)OC(=O)*; NHBn = c1ccc(CN*)cc1
Key:
Sus scrofa [1] = organism: Sus scrofa; test: Concentration required for 50% inhibition of porcine kidney renin at 10e-7 nM of the compound
Renin (Homo sapiens) = target: T1, Renin (Homo sapiens) (UniProt P00797); test: Concentration required for 50% inhibition of human plasma renin at 10e-6 nM of the compound; format: cell-free
T1 sequence (whole entry): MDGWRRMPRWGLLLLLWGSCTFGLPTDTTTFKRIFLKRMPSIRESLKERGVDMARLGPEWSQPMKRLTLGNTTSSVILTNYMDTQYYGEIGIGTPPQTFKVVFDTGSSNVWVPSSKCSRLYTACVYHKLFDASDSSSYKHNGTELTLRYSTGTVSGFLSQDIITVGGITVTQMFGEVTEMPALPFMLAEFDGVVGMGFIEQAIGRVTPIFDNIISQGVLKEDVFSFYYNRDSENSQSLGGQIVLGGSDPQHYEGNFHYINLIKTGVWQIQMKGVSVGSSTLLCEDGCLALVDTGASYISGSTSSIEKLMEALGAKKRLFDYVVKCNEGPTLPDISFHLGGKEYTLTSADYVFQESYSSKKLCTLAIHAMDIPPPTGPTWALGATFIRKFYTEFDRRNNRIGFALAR

[2] = test system: Renin (Canis lupus familiaris); test: Concentration required for 50% inhibition of renin at 10e-6 M of the compound
[3] = Partition coefficient (logD) (octanol/citric acid-phosphate buffer)
Renin = target: T2, Renin (Homo sapiens, UniProt P00797); test: Concentration required for 50% inhibition of human plasma renin; format: cell-free
T2 sequence (P00797 whole entry): T1 sequence (whole entry)

physchem [4] = conditions: S
physchem [5] = conditions: phosphate buffer, pH 7.4, S
Description: Solubility (phosphate buffer, pH 7.4)

Renin (Sus scrofa) = test: Inhibition of porcine kidney renin
Sus scrofa [6] = organism: Sus scrofa; test: Concentration required for 50% inhibition of porcine kidney renin; format: functional
Sus scrofa [7] = organism: Sus scrofa; test: Concentration required for 50% inhibition of porcine kidney renin at 10e-6 (nM) concentration
[8] = test system: Renin (Canis lupus familiaris); test: Concentration required for 50% inhibition of renin; 10e-6 (nM)
[9] = buffer, pH 7.4
Description: Solubility (phosphate buffer, pH 7.4)

Sus scrofa [10] = organism: Sus scrofa; test: Concentration required for 50% inhibition of porcine kidney renin at 10e-7 nM concentration
[11] = test system: Renin (Canis lupus familiaris); test: Concentration required for 50% inhibition of renin at 10e-6 nM concentration
Sus scrofa [12] = organism: Sus scrofa; test: Concentration required for 50% inhibition of porcine kidney renin at 10e-7 (nM) concentration
[13] = target: Renin (Canis lupus familiaris); test: Inhibition of renin

| Compound | logD [3] | solubility (physchem [4]) [µM] | solubility (physchem [5]) [µM] | further results |
| --- | --- | --- | --- | --- |
| CC(C)CC(NC(=O)[C@H](Cc1c[nH]cn1)NC(=O)[C@H](Cc1ccccc1)NC(=O)OC(C)(C)C)C(O)CC(=O)N[C@@H](CC(C)C)C(=O)NCCC(N)C(=O)O (stereo in doubt; 16) |  |  |  | inhibition (Sus scrofa [1]): 0%; inhibition (Renin (Homo sapiens)): 25%; inhibition [2]: 15% |
| CC(C)CC(NC(=O)[C@H](Cc1c[nH]cn1)NC(=O)[C@H](Cc1ccccc1)NC(=O)OC(C)(C)C)C(O)CC(=O)N[C@@H](CC(C)C)C(=O)NCCN=C(N)N (some centres not stated) | 0.322 | 24000 (≈ 18200 µg/mL) | 11000 (≈ 8330 µg/mL) | IC50 (Renin): 64 nM; IC50 (Renin (Sus scrofa)): 710 nM; inhibition [2]: 32% |
| CC(C)CC(NC(=O)[C@H](Cc1cnc[nH]1)NC(=O)[C@H](Cc1ccccc1)NC(=O)OC(C)(C)C)C(O)CC(=O)N[C@@H](CC(C)C)C(=O)NCCCN(CCO)CCO (some centres not stated) | 1.4 | 960 (≈ 784 µg/mL) | 4300 (≈ 3510 µg/mL) | IC50 (Sus scrofa [6]): 900 nM; IC50 (Renin): 170 nM |
| CC(C)CC(NC(=O)[C@H](Cc1c[nH]cn1)NC(=O)[C@H](Cc1ccccc1)NC(=O)OC(C)(C)C)C(O)CC(=O)N[C@@H](CC(C)C)C(=O)NCCN (some centres not stated) |  |  |  | inhibition (Sus scrofa [7]): 31%; inhibition [8]: 32% |
| CC(C)CC(NC(=O)[C@H](Cc1c[nH]cn1)NC(=O)[C@H](Cc1ccccc1)NC(=O)OC(C)(C)C)C(O)CC(=O)N[C@@H](CC(C)C)C(=O)NCCC(N)C(=O)O (stereo in doubt; 17) [listing 1 of 2 here] | 1.03 | 3400 (≈ 2630 µg/mL) |  | S [9]: 1400 µM |
| CC(C)CC(NC(=O)[C@H](Cc1cnc[nH]1)NC(=O)[C@H](Cc1ccccc1)NC(=O)OC(C)(C)C)C(O)CC(=O)N[C@@H](CC(C)C)C(=O)NCc1cc[n+]([O-])cc1 (some centres not stated) |  | 6500 (≈ 5060 µg/mL) | 4200 (≈ 3270 µg/mL) |  |
| CC(C)C[C@H](NC(=O)CC(O)C(CC1CCCCC1)NC(=O)[C@H](Cc1c[nH]cn1)NC(=O)[C@H](Cc1ccccc1)NC(=O)OC(C)(C)C)C(=O)NCc1cccc(CN=C(N)N)c1 (some centres not stated) | > 2 | > 250 | 40 (≈ 34.9 µg/mL) |  |
| CC(C)CC(NC(=O)[C@H](Cc1c[nH]cn1)NC(=O)[C@H](Cc1ccccc1)NC(=O)OC(C)(C)C)C(O)CC(=O)N[C@@H](CC(C)C)C(=O)NC(Cc1cccc(CN)c1)C(=O)O (some centres not stated) | 1.83 | 390 (≈ 331 µg/mL) | 1500 (≈ 1270 µg/mL) | inhibition (Sus scrofa [10]): 0%; IC50 (Renin): 880 nM; inhibition [11]: 18% |
| CC(C)CC(NC(=O)[C@H](Cc1c[nH]cn1)NC(=O)[C@H](Cc1ccccc1)NC(=O)OC(C)(C)C)C(O)CC(=O)N[C@@H](CC(C)C)C(=O)NC(C(=O)O)c1ccccc1 (some centres not stated) (Boc-FH[X1]L[ξPhg]-OH) | 1.22 | 740 (≈ 596 µg/mL) | 2200 (≈ 1770 µg/mL) | inhibition (Sus scrofa [1]): 0%; inhibition (Renin (Homo sapiens)): 44%; inhibition [2]: 45% |
| CC(C)C[C@H](NC(=O)CC(O)C(CC1CCCCC1)NC(=O)[C@H](Cc1cnc[nH]1)NC(=O)[C@H](Cc1ccccc1)NC(=O)OC(C)(C)C)C(=O)NCc1cccc(OCC(=O)O)c1 (some centres not stated) | > 2 | 30 (≈ 26.3 µg/mL) | 210 (≈ 184 µg/mL) |  |
| CC(C)CC(NC(=O)[C@H](Cc1cnc[nH]1)NC(=O)[C@H](Cc1ccccc1)NC(=O)OC(C)(C)C)C(O)CC(=O)N[C@@H](CC(C)C)C(=O)NCCN (some centres not stated) | 0.949 | 2600 (≈ 1860 µg/mL) | 4900 (≈ 3500 µg/mL) | IC50 (Renin): 140 nM |
| CC(C)CC(NC(=O)[C@H](Cc1cnc[nH]1)NC(=O)[C@H](Cc1ccccc1)NC(=O)OC(C)(C)C)C(O)CC(=O)N[C@@H](CC(C)C)C(=O)NCc1cccc(OCC(=O)O)c1 (some centres not stated) | > 2 | 270 (≈ 226 µg/mL) | 1800 (≈ 1500 µg/mL) |  |
| CC(C)CC(NC(=O)[C@H](Cc1c[nH]cn1)NC(=O)[C@H](Cc1ccccc1)NC(=O)OC(C)(C)C)C(O)CC(=O)N[C@@H](CC(C)C)C(=O)NCc1cc[n+]([O-])cc1 (some centres not stated) |  |  |  | inhibition (Sus scrofa [12]): 29% |
| CC(C)CC(NC(=O)[C@H](Cc1c[nH]cn1)NC(=O)[C@H](Cc1ccccc1)NC(=O)OC(C)(C)C)C(O)CC(=O)N[C@@H](CC(C)C)C(=O)N1CCN(Cc2ccccc2)CC1 (some centres not stated) | > 2 | < 10 | < 10 | IC50 (Renin): 127 nM; IC50 [13]: 310 nM; IC50 (Renin (Sus scrofa)): 280 nM |
| CC(C)CC(NC(=O)[C@H](Cc1c[nH]cn1)NC(=O)[C@H](Cc1ccccc1)NC(=O)OC(C)(C)C)C(O)CC(=O)N[C@@H](CC(C)C)C(=O)NCC(N)c1ccccn1 (some centres not stated) | > 2 | 890 (≈ 705 µg/mL) | 400 (≈ 317 µg/mL) |  |
| CC(C)C[C@H](NC(=O)CC(O)C(CC1CCCCC1)NC(=O)[C@H](Cc1cnc[nH]1)NC(=O)[C@H](Cc1ccccc1)NC(=O)OC(C)(C)C)C(=O)NCc1ccncc1 (some centres not stated) | > 2 |  | < 10 |  |
| CC(C)C[C@H](NC(=O)C[C@H](O)[C@H](CC(C)C)NC(=O)[C@H](Cc1c[nH]cn1)NC(=O)[C@H](Cc1ccccc1)NC(=O)OC(C)(C)C)C(=O)N[C@@H](Cc1ccccc1)C(N)=O (Boc-FH[Sta]LF-NH2) | > 2 | < 20 | < 20 |  |
| CC(C)CC(NC(=O)[C@H](Cc1c[nH]cn1)NC(=O)[C@H](Cc1ccccc1)NC(=O)OC(C)(C)C)C(O)CC(=O)N[C@@H](CC(C)C)C(=O)NCCC(N)C(=O)O (stereo in doubt; 17) [listing 2 of 2 here] |  |  |  | inhibition (Sus scrofa [7]): 0%; inhibition (Renin (Homo sapiens)): 8%; inhibition [8]: 22% |
| CC(C)CC(NC(=O)[C@H](Cc1cnc[nH]1)NC(=O)[C@H](Cc1ccccc1)NC(=O)OC(C)(C)C)C(O)CC(=O)N[C@@H](CC(C)C)C(=O)NCc1cccc(CN)c1 (some centres not stated) | 1.89 | 880 (≈ 696 µg/mL) | 1400 (≈ 1110 µg/mL) | IC50 (Renin): 9 nM; IC50 [13]: 110 nM; IC50 (Renin (Sus scrofa)): 54 nM |
| CC(C)C[C@H](NC(=O)C[C@H](O)[C@H](CC(C)C)NC(=O)[C@H](Cc1c[nH]cn1)NC(=O)[C@H](Cc1ccccc1)NC(=O)OC(C)(C)C)C(=O)NCc1ccccc1 (Boc-FH[Sta]L-NHBn) | > 2 | < 10 | < 10 |  |
| CC(C)CC(NC(=O)[C@H](Cc1c[nH]cn1)NC(=O)[C@H](Cc1ccccc1)NC(=O)OC(C)(C)C)C(O)CC(=O)N[C@@H](CC(C)C)C(=O)NCc1ccncc1 (some centres not stated) | > 2 | 440 (≈ 336 µg/mL) | 340 (≈ 259 µg/mL) |  |
| CC(C)CC(NC(=O)[C@H](Cc1c[nH]cn1)NC(=O)[C@H](Cc1ccccc1)NC(=O)OC(C)(C)C)C(O)CC(=O)N[C@@H](CC(C)C)C(=O)NCc1ccccn1 (some centres not stated) | > 2 | 380 (≈ 290 µg/mL) | 180 (≈ 137 µg/mL) |  |
| CC(C)CC(NC(=O)[C@H](Cc1cnc[nH]1)NC(=O)[C@H](Cc1ccccc1)NC(=O)OC(C)(C)C)C(O)CC(=O)N[C@@H](CC(C)C)C(=O)NCc1cccc(CN=C(N)N)c1 (some centres not stated) | 1.03 | 3000 (≈ 2500 µg/mL) | 930 (≈ 775 µg/mL) |  |

Reference: ChEMBL document CHEMBL1123973, “Renin inhibitors containing hydrophilic groups. Tetrapeptides with enhanced aqueous solubility and nanomolar potency” (J Med Chem, 1988)
